Some results are limits rather than exact numbers.

In series [1] the test system is rat. As to conditions: Multigenerational reproductive toxicity study, sprague dawley, Oral, Gavage/Intubation, dose end: 2 generation.
Series [2] concerns rat. Particulars: Multigenerational reproductive toxicity study, other, Oral, Feed, dose end: 2 generation.
Series [3] has as its system rat. Particulars: Prenatal developmental toxicity study, fischer, Oral, Gavage/Intubation, dose end: 15 GD.
The test system of the next series is mouse. As to conditions: Multigenerational reproductive toxicity study, cd1, Oral, Feed, dose end: 1 generation.
For series [4], the system named is rat. As to conditions: Peri- and post-natal toxicity study (Segment III), sprague dawley, Oral, Gavage/Intubation, dose end: 40 PND.
Series [5] relates to rat. As to conditions: Multigenerational reproductive toxicity study, sprague dawley, Oral, Feed, dose end: 2 generation.
Series [6] concerns rat. Particulars: Peri- and post-natal toxicity study (Segment III), sprague dawley, Oral, Gavage/Intubation, dose end: 43 PND.
The subject of series [7] is rabbit. Particulars: Prenatal developmental toxicity study, new zealand white, Oral, Gavage/Intubation, dose end: 19 GD.
For series [8], the system named is rat. Particulars: Multigenerational reproductive toxicity study, sprague dawley, Oral, Feed, dose end: 2 generation. This is another data set of the same source.
The subject of series [9] is rabbit. Particulars: Prenatal developmental toxicity study, dutch, Oral, Gavage/Intubation, dose end: 19 GD.
Where [10] appears, read: group: offspring, systemic / organ weight / thymus / absolute.
The mark [11] stands for this setting: group: offspring, systemic / organ weight / thymus / absolute + systemic / organ weight / thymus / relative to body weight.
[12] abbreviates: group: parental, systemic / organ weight / liver / absolute + systemic / organ weight / liver / relative to body weight.
[13] abbreviates: group: parental, systemic / organ weight / liver / absolute + systemic / organ weight / liver / relative to body weight + systemic / in life observation / ….
[14] abbreviates: group: offspring, developmental / offspring survival late / [other] / [other] + systemic / in life observation / body weight / offspring (pup) weight.
The mark [15] stands for this setting: group: parental, systemic / in life observation / body weight / body weight + systemic / in life observation / food consumption / food consumption.
Setting [16] is: group: reproductive, reproductive / offspring survival early / litter size / litter size + reproductive / offspring survival early / live fetuses / live fetuses.
Setting [17] is: group: developmental, systemic / in life observation / body weight / fetal weight.
[18] abbreviates: group: maternal, systemic / in life observation / body weight / body weight + systemic / in life observation / body weight / body weight gain + systemic / in….
The mark [19] stands for this setting: group: maternal, systemic / in life observation / body weight / body weight gain + systemic / in life observation / food consumption / food consumption.
The mark [20] stands for this setting: group: parental, systemic / in life observation / body weight / body weight + systemic / organ weight / kidney / nos + systemic / organ weight / liver / nos….
The mark [21] stands for this setting: group: reproductive, reproductive / reproductive performance / fertility / fertility + reproductive / offspring survival early / live fetuses / live fetuses.
Where [22] appears, read: group: reproductive, reproductive / reproductive performance / fertility / fertility + reproductive / offspring survival early / live fetuses / live fetuses + ….
[23] abbreviates: group: maternal, reproductive / reproductive performance / estrous cycle / corpora lutea.
Setting [24] is: group: parental, systemic / pathology microscopic / ovary / follicle count + systemic / pathology microscopic / uterus / thickened.
Setting [25] is: group: offspring, systemic / in life observation / body weight / offspring (pup) weight.
Setting [26] is: group: parental, systemic / organ weight / ovary / nos.
Where [27] appears, read: group: reproductive, reproductive / reproductive performance / gestational length / gestational length.
Setting [28] is: group: developmental, developmental / developmental landmark / vaginal opening / vaginal opening.
[29] abbreviates: group: maternal, reproductive / reproductive performance / estrous cycle / [other].
Where [30] appears, read: group: maternal, reproductive / reproductive performance / estrous cycle / [other] + reproductive / reproductive performance / estrous cycle / abnormal + ….
The mark [31] stands for this setting: group: parental, systemic / organ weight / liver / absolute + systemic / organ weight / ovary / absolute + systemic / organ weight / pituitary gland / ….
Setting [32] is: group: developmental, developmental / developmental malformation / bone / misshapen + developmental / developmental malformation / gallbladder / hypoplasia + ….
[33] abbreviates: group: parental, systemic / in life observation / body weight / body weight + systemic / organ weight / ovary / nos.
The mark [34] stands for this setting: group: parental, systemic / in life observation / body weight / body weight + systemic / organ weight / ovary / nos + systemic / pathology microscopic / ….
Setting [35] is: group: reproductive, reproductive / reproductive performance / fertility / fertility.
Where [36] appears, read: group: reproductive, reproductive / reproductive performance / fertility / fertility + reproductive / reproductive performance / estrous cycle / corpora lutea.
[37] abbreviates: group: cholinesterase, cholinesterase / cholinesterase / cholinesterase / brain cholinesterase (che) + cholinesterase / cholinesterase / cholinesterase / ….
Where [38] appears, read: group: developmental, developmental / developmental malformation / bone / incomplete ossification.
Where [39] appears, read: group: maternal, reproductive / reproductive performance / resorptions / resorptions + systemic / in life observation / clinical signs / abnormal feces.

In the series on rat [1] (setting [10]), `CCCCc1ccccc1` [Butylbenzene] registered an NEL of 100 mg/kg/day and an NOAEL of 100 mg/kg/day. In the series on rat [1] (setting [11]), the LEL was 300 mg/kg/day and the LOAEL worked out at 300 mg/kg/day. Also, in the series on rat [1] (setting [12]), the LEL was 30 mg/kg/day and the NEL is under 30 mg/kg/day. In the series on rat [1] (setting [13]), the LOAEL was found to be 100 mg/kg/day and the NOAEL is 30 mg/kg/day.
For `Cl/C=C\C[N+]12CN3CN(CN(C3)C1)C2.[Cl-]` [Chloroallyl methenamine chloride], the LEL in the series with rat [2] (setting [14]) is 14.8 mg/kg/day; in the series with rat [2] (setting [15]), 4.57 mg/kg/day; in the series with rat [2] (setting [16]) it was 14.8 mg/kg/day; in the series with rat [3] (setting [17]), 75 mg/kg/day; in the series with rat [3] (setting [19]), 25 mg/kg/day. Besides, the LOAEL in the series with rat [2] (setting [14]) was over 14.8 mg/kg/day; in the series with rat [2] (setting [15]), over 13.4 mg/kg/day; with rat [2] (setting [16]) it was over 14.8 mg/kg/day; in the series on rat [3] (setting [17]), over 75 mg/kg/day; in the series on rat [3] (setting [18]), 75 mg/kg/day. Also, the NEL is 5 mg/kg/day with rat [2] (setting [14]); 1.53 mg/kg/day with rat [2] (setting [15]); 5 mg/kg/day in the series with rat [2] (group: reproductive, reproductive / offspring survival early / litter size / litter size); 25 mg/kg/day in the series on rat [3] (setting [17]); under 25 mg/kg/day with rat [3] (setting [19]). Besides, the NOAEL in the series on rat [2] (setting [14]) was at least 14.8 mg/kg/day; in the series with rat [2] (setting [15]), at least 13.4 mg/kg/day; with rat [2] (setting [16]), at least 14.8 mg/kg/day; in the series on rat [3] (setting [17]) it was at least 75 mg/kg/day; with rat [3] (setting [18]), 25 mg/kg/day.
On to `CCCCCOC(=O)c1ccccc1C(=O)OCCCCC` [Dipentyl phthalate], for which, in the series with mouse (group: parental, systemic / in life observation / body weight / body weight + systemic / organ weight / kidney / nos + systemic / organ weight / liver / nos), the NEL was 2.16 mg/kg/day. In addition, in the series on mouse (setting [20]), the LEL came to 4.79 mg/kg/day, the LOAEL was over 4.79 mg/kg/day and the NOAEL was at least 4.79 mg/kg/day. In addition, in the series with mouse (setting [21]), the LEL came to 0.76 mg/kg/day and the NEL is under 0.76 mg/kg/day. Besides, in the series with mouse (setting [22]), the LOAEL was over 4.79 mg/kg/day and the no-observed-adverse-effect level (NOAEL) was at least 4.79 mg/kg/day.
In the series with rat [4] (setting [23]), `CC(C)COC(=O)c1ccc(O)cc1` [Isobutylparaben] displayed an LEL of 62.5 mg/kg/day, an LOAEL of over 1000 mg/kg/day, an NEL of under 62.5 mg/kg/day and an NOAEL of at least 1000 mg/kg/day. Further, in the series with rat [4] (setting [24]), the LEL was determined as 62.5 mg/kg/day, the LOAEL was over 1000 mg/kg/day, the NEL was under 62.5 mg/kg/day and the NOAEL is at least 1000 mg/kg/day.
In the series on rat [5] (setting [25]), `CC1(C)CCC(Cc2ccc(Cl)cc2)C1(O)Cn1cncn1` (stereo not given) [Metconazole] gave an LEL of 32 mg/kg/day, an LOAEL of 32 mg/kg/day, an NEL of 8 mg/kg/day and an NOAEL of 8 mg/kg/day. Further, in the series on rat [5] (setting [26]), the LEL turned out to be 32 mg/kg/day, the LOAEL was 32 mg/kg/day, the NEL was found to be 8 mg/kg/day and the NOAEL worked out at 8 mg/kg/day. Also, in the series with rat [5] (setting [27]), the LEL turned out to be 32 mg/kg/day, the LOAEL is over 32 mg/kg/day, the NEL is 8 mg/kg/day and the NOAEL is at least 32 mg/kg/day.
In the series on rat [6] (setting [28]), `COc1ccc(C(c2ccc(OC)cc2)C(Cl)(Cl)Cl)cc1` [Methoxychlor] registered an LEL of 12.5 mg/kg/day, an LOAEL of over 50 mg/kg/day, an NEL of under 12.5 mg/kg/day and an NOAEL of at least 50 mg/kg/day. In the series on rat [6] (setting [29]), this compound showed an LEL of 12.5 mg/kg/day and an NEL of under 12.5 mg/kg/day. In addition, in the series with rat [6] (setting [30]), the LOAEL was over 50 mg/kg/day and the NOAEL is at least 50 mg/kg/day. Moreover, in the series on rat [6] (setting [31]), the LEL turned out to be 50 mg/kg/day, the LOAEL was over 50 mg/kg/day, the NEL stood at 25 mg/kg/day and the NOAEL is at least 50 mg/kg/day.
For `CC1=C(C(=O)Nc2ccccc2)S(=O)(=O)CCO1` [Oxycarboxin], in the series with rabbit [7] (setting [32]), the LEL turned out to be 750 mg/kg/day, the LOAEL was determined as 750 mg/kg/day, the NEL worked out at 150 mg/kg/day and the NOAEL is 150 mg/kg/day. Moreover, in the series on rabbit [7] (setting [18]), the LEL stood at 750 mg/kg/day, the LOAEL was 750 mg/kg/day, the NEL worked out at 150 mg/kg/day and the no-observed-adverse-effect level (NOAEL) was 150 mg/kg/day.
Regarding `CCS(=O)CCSP(=O)(OC)OC` (stereo not given) [Oxydemeton-methyl], the LEL was found to be 2.1 mg/kg/day in the series on rat [8] (setting [14]); 2.1 mg/kg/day with rat [8] (setting [34]); 2.1 mg/kg/day with rat [8] (setting [36]); 1.6 mg/kg/day in the series with rabbit [9] (setting [37]); 0.1 mg/kg/day with rabbit [9] (setting [38]); 0.4 mg/kg/day with rabbit [9] (group: maternal, systemic / in life observation / clinical signs / abnormal feces). In addition, the LOAEL with rat [8] (setting [14]) was 2.1 mg/kg/day; with rat [8] (setting [34]) it was 2.1 mg/kg/day; with rat [8] (setting [36]) it was 2.1 mg/kg/day; in the series with rabbit [9] (setting [37]), 1.6 mg/kg/day; in the series on rabbit [9] (setting [38]), 0.1 mg/kg/day; with rabbit [9] (setting [39]), over 1.6 mg/kg/day. Besides, the NEL in the series with rat [8] (setting [14]) is 0.38 mg/kg/day; in the series with rat [8] (setting [33]), 0.38 mg/kg/day; in the series with rat [8] (setting [35]), 0.38 mg/kg/day; with rabbit [9] (setting [37]), 0.4 mg/kg/day; in the series on rabbit [9] (setting [38]) it was under 0.1 mg/kg/day; in the series on rabbit [9] (setting [39]) it was 0.1 mg/kg/day. Also, the NOAEL in the series with rat [8] (setting [14]) was 0.38 mg/kg/day; in the series on rat [8] (setting [33]), 0.38 mg/kg/day; in the series on rat [8] (setting [35]), 0.38 mg/kg/day; in the series with rabbit [9] (setting [37]), 0.4 mg/kg/day; with rabbit [9] (setting [38]), under 0.1 mg/kg/day; in the series with rabbit [9] (setting [39]) it was at least 1.6 mg/kg/day.

(Values after EPA's ToxRefDB 2.)
